Laboratory results: patent US6528521B2, “Treatment of anti-depression drug-induced sexual dysfunction with apomorphine” (Tap Pharmaceutical Products, Inc., priority 2000, dated 2003)

Test system: male patients taking selective serotonin reuptake inhibitors
Assay: Crossover home-use trial of sublingual apomorphine in male patients taking SSRIs
Format: in vivo, human
Settings: apomorphine versus placebo
Description: A crossover study of 1500 patients in a home-use trial of apomorphine on male patients was performed.
In the crossover study, a 2-4 week baseline period was used to evaluate subjects. After this time, during an initial four week treatment period, subjects received either a placebo or apomorphine, without knowing whether or not they had received the active medication. The dosage was either 2, 4, 5 or 6 mg. This initial treatment period was followed by a 24-96 hour washout period, in which no medication was taken. Subsequently, a second four week treatment period, subjects who previously had received apomorphine, were given a placebo, and subjects who previously had received the placebo were given apomorphine. Subject were to attempt coitus once each week after taking a single tablet of apomorphine sublingually. After each attempt, the subject and their partner completed a sexual function questionnaire which was later evaluated and used for final statistical analysis. In the analysis, the data for patients receiving 2, 4, 5 or 6 mg dosages was pooled.

CN1CCc2cccc3c2[C@H]1Cc1ccc(O)c(O)c1-3 [apomorphine, (R)-5,6,6a,7-tetrahydro-6-methyl-4H-dibenzo-[de,g]quinoline-10,11-diol]
patients on SSRI drugs able to have intercourse after taking apomorphine, relative to placebo: twice as many
